This is an account of results in patent US11932636B2, “RAD51 inhibitors” (Cyteir Therapeutics, Inc., priority 2019, dated 2024).

This assay concerns Daudi cells (AID positive). In words: Compound primary screening: cell death in AID positive Daudi cells (Cell-Titer Glo, Day 7). It counts as cell-based. Particulars: Homo sapiens, 168 h; Daudi cells, AID positive; cell death on Day 7, Cell-Titer Glo; read-out: Cellular activity in AID + (Daudi). The method in brief: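 AID-positive Daudi cells were seeded at 1250 cells per well and treated with serially diluted compound delivered from a DMSO/media master plate. Cultures were incubated at 37 °C, and cell death was measured on Day 7 with Cell-Titer Glo luminescence.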
As to `CCNS(=O)(=O)c1cc(NC2(C(C)C)COC2)ccc1-c1cnc([C@H]2CC[C@H](NC(=O)OC(C)C)CC2)s1` [Compound 69, isopropyl trans-N-[4-[5-[2-(ethylsulfamoyl)-4-[(3-isopropyloxetan-3-yl)amino]phenyl]thiazol-2-yl]cyclohexyl]carbamate], the EC50 was under 100 nM. As for `CCNS(=O)(=O)c1cc(NC2(CC(C)C)COC2)ccc1-c1cnc([C@H]2CC[C@H](NC(=O)OC(C)C)CC2)s1` [Compound 70, isopropyl trans-N-[4-[5-[2-(ethylsulfamoyl)-4-[(3-isobutyloxetan-3-yl)amino]phenyl]thiazol-2-yl]cyclohexyl]carbamate], the EC50 fell in the range of 100 to 1000 nM. As to `CCNS(=O)(=O)c1cc(C(=O)OC)ccc1-c1cnc([C@H]2CC[C@H](NC(=O)OC(C)C)CC2)s1` [Compound 71, methyl trans-3-(ethylsulfamoyl)-4-[2-[4-(isopropoxycarbonyl-amino)cyclohexyl]thiazol-5-yl]benzoate], the EC50 was in the range of 1000 to 10000 nM.

Turning to `CCNS(=O)(=O)c1cc(CO)ccc1-c1cnc([C@H]2CC[C@H](NC(=O)OC(C)C)CC2)s1` [Compound 72, isopropyl trans-N-[4-[5-[2-(ethylsulfamoyl)-4-(hydroxymethyl)phenyl]thiazol-2-yl]cyclohexyl]carbamate], the EC50 fell in the range of 1000 to 10000 nM. Turning to `CCNS(=O)(=O)c1cc(CNc2ncc[nH]2)ccc1-c1cnc([C@H]2CC[C@H](NC(=O)OC(C)C)CC2)s1` [Compound 73, isopropyl trans-N-[4-[5-[2-(ethylsulfamoyl)-4-[(1H-imidazol-2-ylamino)methyl]phenyl]thiazol-2-yl]cyclohexyl]carbamate], the EC50 is 1000 to 10000 nM. For `CCNS(=O)(=O)c1cc(CNc2ncco2)ccc1-c1cnc([C@H]2CC[C@H](NC(=O)OC(C)C)CC2)s1` [Compound 74, isopropyl trans-N-[4-[5-[2-(ethylsulfamoyl)-4-[(oxazol-2-ylamino)methyl]phenyl]thiazol-2-yl]cyclohexyl]carbamate], the EC50 was in the range of 100 to 1000 nM. Regarding `CCNS(=O)(=O)c1cc(-c2ncc[nH]2)ccc1-c1cnc([C@H]2CC[C@H](NC(=O)OC(C)C)CC2)s1` [Compound 75, isopropyl trans-N-[4-[5-[2-(ethylsulfamoyl)-4-(1H-imidazol-2-yl)phenyl]thiazol-2-yl]cyclohexyl]carbamate], the EC50 lay within 1000 to 10000 nM. For the compound `CCNS(=O)(=O)c1cc(CC(=O)OC)ccc1-c1cnc([C@H]2CC[C@H](NC(=O)OC(C)C)CC2)s1` [Compound 76, methyl trans-2-[3-(ethylsulfamoyl)-4-[2-[4-(isopropoxycarbonylamino)cyclohexyl]thiazol-5-yl]phenyl]acetate], the EC50 fell in the range of 1000 to 10000 nM. For the compound `CCNS(=O)(=O)c1cc(CC(=O)O)ccc1-c1cnc([C@H]2CC[C@H](NC(=O)OC(C)C)CC2)s1` [Compound 77, trans-2-[3-(ethylsulfamoyl)-4-[2-[4-(isopropoxycarbonyl-amino)cyclohexyl]thiazol-5-yl]phenyl]acetic Acid], the EC50 lay within 1000 to 10000 nM. `CCNS(=O)(=O)c1cc(Cc2ncc[nH]2)ccc1-c1cnc([C@H]2CC[C@H](NC(=O)OC(C)C)CC2)s1` [Compound 78, isopropyl trans-N-[4-[5-[2-(ethylsulfamoyl)-4-(1H-imidazol-2-ylmethyl)phenyl]thiazol-2-yl]cyclohexyl]carbamate]: the EC50 lay within 1000 to 10000 nM. As for `CCNS(=O)(=O)c1cc(CC(=O)NCc2ccccc2)ccc1-c1cnc([C@H]2CC[C@H](NC(=O)OC(C)C)CC2)s1` [Compound 79, isopropyl trans-N-[4-[5-[4-[2-(benzylamino)-2-oxo-ethyl]-2-(ethyl-sulfamoyl)phenyl]thiazol-2-yl]cyclohexyl]carbamate], the EC50 was under 100 nM. As to `CCNS(=O)(=O)c1cc(CC(=O)N(C)C(C)C)ccc1-c1cnc([C@H]2CC[C@H](NC(=O)OC(C)C)CC2)s1` [Compound 80, isopropyl trans-N-[4-[5-[4-[2-(isopropyl(methyl)amino)-2-oxo-ethyl]-2-(ethyl-sulfamoyl)phenyl]thiazol-2-yl]cyclohexyl]carbamate], the EC50 was 100 to 1000 nM. Turning to `CCNS(=O)(=O)c1cc(CC(=O)N(C)Cc2ccccc2)ccc1-c1cnc([C@H]2CC[C@H](NC(=O)OC(C)C)CC2)s1` [Compound 81, isopropyl trans-N-[4-[5-[4-[2-(benzyl(methyl)amino)-2-oxo-ethyl]-2-(ethyl-sulfamoyl)phenyl]thiazol-2-yl]cyclohexyl]carbamate], the EC50 fell in the range of 100 to 1000 nM. Take `CCNS(=O)(=O)c1cc(CC(=O)N2CCCC2)ccc1-c1cnc([C@H]2CC[C@H](NC(=O)OC(C)C)CC2)s1` [Compound 82, isopropyl trans-N-[4-[5-[4-[2-oxo-2-(pyrrolidin-1-yl)ethyl]-2-(ethyl-sulfamoyl)phenyl]thiazol-2-yl]cyclohexyl]carbamate]: the EC50 lay within 100 to 1000 nM. Regarding `CCNS(=O)(=O)c1cc(CC(=O)N2CCCCC2)ccc1-c1cnc([C@H]2CC[C@H](NC(=O)OC(C)C)CC2)s1` [Compound 83, isopropyl trans-N-[4-[5-[4-[2-oxo-2-(piperidin-1-yl)ethyl]-2-(ethyl-sulfamoyl)phenyl]thiazol-2-yl]cyclohexyl]carbamate], the EC50 is 100 to 1000 nM. Consider `CCNS(=O)(=O)c1cc(CC(=O)N2CCOCC2)ccc1-c1cnc([C@H]2CC[C@H](NC(=O)OC(C)C)CC2)s1` [Compound 84, isopropyl trans-N-[4-[5-[4-[2-oxo-2-(morpholin-4-yl)ethyl]-2-(ethyl-sulfamoyl)phenyl]thiazol-2-yl]cyclohexyl]carbamate], for which the EC50 was in the range of 100 to 1000 nM. In the case of `CCNS(=O)(=O)c1cc(CC(=O)N2CC(O)C2)ccc1-c1cnc([C@H]2CC[C@H](NC(=O)OC(C)C)CC2)s1` [Compound 85, isopropyl trans-N-[4-[5-[4-[2-oxo-2-(3-hydroxyazetidin-1-yl)ethyl]-2-(ethyl-sulfamoyl)phenyl]thiazol-2-yl]cyclohexyl]carbamate] it was 100 to 1000 nM; in that of `CCNS(=O)(=O)c1cc(CC(N)=O)ccc1-c1cnc([C@H]2CC[C@H](NC(=O)OC(C)C)CC2)s1` [Compound 86, isopropyl trans-N-[4-[5-[4-[2-amino-2-oxo-ethyl]-2-(ethyl-sulfamoyl)phenyl]thiazol-2-yl]cyclohexyl]carbamate], 100 to 1000 nM. In the case of `CCNS(=O)(=O)c1cc(CC(=O)N2CCC2)ccc1-c1cnc([C@H]2CC[C@H](NC(=O)OC(C)C)CC2)s1` [Compound 87, isopropyl trans-N-[4-[5-[4-[2-oxo-2-(azetidin-1-yl)ethyl]-2-(ethyl-sulfamoyl)phenyl]thiazol-2-yl]cyclohexyl]carbamate] it was 100 to 1000 nM; in that of `CC(C)OC(=O)N[C@H]1CC[C@H](c2ncc(-c3ccc(N)cc3S(=O)(=O)N3CCCC3)s2)CC1` [Compound 88, isopropyl trans-N-[4-[5-(4-amino-2-pyrrolidin-1-ylsulfonyl-phenyl)thiazol-2-yl]cyclohexyl]carbamate], 100 to 1000 nM.

Take `CNc1ccc(-c2cnc([C@H]3CC[C@H](NC(=O)OC(C)C)CC3)s2)c(S(=O)(=O)N2CCCC2)c1` [Compound 89, isopropyl trans-N-[4-[5-(4-(methylamino)-2-pyrrolidin-1-ylsulfonyl-phenyl)thiazol-2-yl]cyclohexyl]carbamate]: the EC50 fell in the range of 100 to 1000 nM. In the case of `CC(C)OC(=O)N[C@H]1CC[C@H](c2ncc(-c3ccc(Nc4ncc[nH]4)cc3S(N)(=O)=O)s2)CC1` [Compound 90, isopropyl trans-N-[4-[5-[4-(1H-imidazol-2-ylamino)-2-sulfamoyl-phenyl]thiazol-2-yl]cyclohexyl]carbamate] it was 100 to 1000 nM; in that of `CC(C)OC(=O)N[C@H]1CC[C@H](c2ncc(-c3ccc(Nc4ncc[nH]4)cc3S(=O)(=O)N(C)C)s2)CC1` [Compound 91, isopropyl trans-N-[4-[5-[2-(dimethylsulfamoyl)-4-(1H-imidazol-2-ylamino)phenyl]thiazol-2-yl]cyclohexyl]carbamate], 100 to 1000 nM. In the case of `CC(C)OC(=O)N[C@H]1CC[C@H](c2ncc(-c3ccc(Nc4ncc[nH]4)cc3S(=O)(=O)N3CCCC3)s2)CC1` [Compound 92, isopropyl trans-N-[4-[5-[4-(1H-imidazol-2-ylamino)-2-pyrrolidin-1-ylsulfonyl-phenyl]thiazol-2-yl]cyclohexyl]carbamate] it was 100 to 1000 nM; in that of `CNS(=O)(=O)c1ccccc1-c1cnc([C@H]2CC[C@H](NC(=O)OC(C)C)CC2)s1` [Compound 93, isopropyl trans-N-[4-[5-(2-methylsulfamoylphenyl)thiazol-2-yl]cyclohexyl]carbamate], 1000 to 10000 nM.

In the case of `CCNS(=O)(=O)c1cc(C(=O)Nc2ncc[nH]2)ccc1-c1cnc([C@H]2CC[C@H](NC(=O)OC(C)C)CC2)s1` [Compound 94, isopropyl trans-N-[4-[5-[2-(ethylsulfamoyl)-4-(1H-imidazol-2-ylcarbamoyl)phenyl]thiazol-2-yl]cyclohexyl]carbamate], the EC50 was under 100 nM.

In the case of `CCNS(=O)(=O)c1cc(C(=O)N2CCCC2)ccc1-c1cnc([C@H]2CC[C@H](NC(=O)OC(C)C)CC2)s1` [Compound 95, isopropyl trans-N-[4-[5-[4-pyrrolidin-1-ylcarbonyl-2-(ethylsulfamoyl)phenyl]thiazol-2-yl]cyclohexyl]carbamate], the EC50 lay within 100 to 1000 nM. Under `CCNS(=O)(=O)c1cc(CC(=O)NC(C)C)ccc1-c1cnc(N2CCN(C(=O)OC3COC3)CC2)s1` [Compound 96, oxetan-3-yl 4-(5-(2-(N-ethylsulfamoyl)-4-(2-(isopropylamino)-2-oxoethyl)phenyl)thiazol-2-yl)piperazine-1-carboxylate] stands over 10000 nM; under `CC(C)OC(=O)N[C@H]1CC[C@H](c2ncc(-c3ccc(CC(=O)NCc4ccccc4)cc3S(=O)(=O)NC(C)(C)C)s2)CC1` [Compound 97, isopropyl trans-N-[4-[5-[4-[2-(benzylamino)-2-oxo-ethyl]-2-(tert-butylsulfamoyl)phenyl]thiazol-2-yl]cyclohexyl]carbamate], under 100 nM.
